Laboratory results as given in PMC10059999, “Assessment of Lipophilicity Parameters of Antimicrobial and Immunosuppressive Compounds” (Molecules, 2023).
In brackets after ≈: the same amount, converted by molar mass. Where two headings read alike, the source gives them in different places.

How the values were obtained:
[1] = design: method as in ChemSpider / selleckchem.com; settings: ref ChemSpider / selleckchem.com, cited from earlier work; for Solubility in Water / logS: aqueous solubility
[2] = RP-TLC determination of chromatographic lipophilicity parameter RMW (Soczewiński–Wachtmeister extrapolation to pure water); format: physicochemical; settings: for RMW values, range: range over all plates (RP2F254, RP18F254, RP18WF254) and all mobile phases
Protocol: Thin-layer chromatography aluminum plates (20 cm × 20 cm, 0.25 mm) precoated with silica gel RP18F254, and glass plates coated with silica gel RP18WF254 (20 cm × 10 cm) and silica gel RP2F254 (10 cm × 10 cm) were obtained from Merck (Darmstadt, Germany).
The chromatographic analysis was carried out according to the procedure described earlier on RP-TLC plates (RP2F254, RP18F254, RP18WF254) as a stationary phase using three different mobile phases. Five microliters of standard solutions of analytes were spotted onto the chromatographic plates. The chromatographic chamber 20 cm × 10 cm (Camag, Switzerland) was saturated with the mobile phase vapors for 20 min. The mobile phases were prepared by mixing appropriate organic modifiers (ethanol, propan-2-ol, acetonitrile) and water in different volume compositions. The content of the organic modifier in the mobile phase used was changed in the step of 5% (v/v) in the range of 30–90% v/v. Thus, the mobile phases used consisted of a suitable organic solvent and water mixed in the following volume compositions: 30:70; 35:65; 40:60; 45:55; 50:50; […]; 60:40; 65:35; 70:30; 75:25; 80:20; 85:15 and 90:10. Chromatograms were developed at room temperature (21 ± 1 °C) to the solvent distance of 7 cm. Next, the chromatograms were dried for 24 h at (21 ± 1 °C) in a fume cupboard. The detection of the studied compounds was carried out under a UV lamp at 254 nm (Camag, Muttenz, Switzerland). The values of Rf (retardation factor) are the average values of three independent measurements in each case.

[3] = design: method as in DrugBank; settings: n-octanol-water, ref DrugBank, cited from earlier work
[4] = RP2F254 plates, acetonitrile-water mobile phase
[5] = RP2F254 plates, ethanol–water mobile phase
[6] = RP2F254 plates, propan-2-ol-water mobile phase
[7] = RP18F254 plates, acetonitrile-water mobile phase
[8] = RP18F254 plates, ethanol–water mobile phase
[9] = RP18F254 plates, propan-2-ol-water mobile phase
[10] = RP18WF254 plates, acetonitrile-water mobile phase
[11] = RP18WF254 plates, ethanol–water mobile phase
[12] = RP18WF254 plates, propan-2-ol-water mobile phase

Row | RMW [2, 4] | RMW [2, 5] | RMW [2, 6] | RMW [2, 7] | RMW [2, 8] | RMW [2, 9] | RMW [2, 10] | RMW [2, 11] | RMW [2, 12] | RMW values, range [2] | RMW values, range on RP2F254 ([2]; RP2F254 plates, range over the three mobile phases) | SMILES | Solubility in Water [1] | logS [1] | pKa (Strongest Acidic) [1] | pKa (Strongest Basic) [1] | logPexp (Experimental Value) [3] | logPexp (Experimental Value) ([3]; listed as ceftazidime)
1 | 0.6615 | 0.9184 | 0.7390 | 2.3174 | 2.1359 | 1.7719 | 1.8351 | 1.9694 | 1.6940 |  |  | Nc1nc(-n2cc(C(=O)O)c(=O)c3cc(F)c(N4CC(O)C4)c(Cl)c32)c(F)cc1F [Delafloxacin, delafloxacin] | 69.9 µg/mL (≈ 159 µM) | −3.8 | 5.62 | −1.3 |  | 
2 | 2.7480 | 3.3623 | 2.1522 | 3.1252 | 3.1105 | 2.4741 | 3.2300 | 2.7377 | 2.7821 | 2.1522–3.3623 |  | CO[C@H]1C[C@@H]2CC[C@@H](C)[C@@](O)(O2)C(=O)C(=O)N2CCCC[C@H]2C(=O)O[C@H]([C@H](C)C[C@@H]2CC[C@H](n3cnnn3)[C@H](OC)C2)CC(=O)[C@H](C)/C=C(\C)[C@@H](O)[C@@H](OC)C(=O)[C@H](C)C[C@H](C)/C=C/C=C/C=C/1C [Zotarolimus, zotarolimus] |  |  |  |  |  | 
3 | −0.0357 | −0.6643 | −0.3642 | 0.1462 | −2.9545 | 0.4691 | 0.4121 | 0.4152 | 0.9153 | −2.9545 to 0.9153 | −0.0357 to −0.6643 | CC(C)(O/N=C(\C(=O)N[C@@H]1C(=O)N2C(C(=O)[O-])=C(C[n+]3ccccc3)CS[C@H]12)c1csc(N)n1)C(=O)O [Ceftazidime, ceftazidime] | 5.73 µg/mL (≈ 10.5 µM) | −5.0 | 2.42 | 4.02 | −1.60 | −1.6
4 | 2.8557 | 2.9460 | 2.2145 | 2.9462 | 3.5637 | 2.5865 | 2.7737 | 2.8227 | 2.5687 | 2.2145–3.5637 |  | CO[C@H]1C[C@@H]2CC[C@@H](C)[C@@](O)(O2)C(=O)C(=O)N2CCCC[C@H]2C(=O)O[C@H]([C@H](C)C[C@@H]2CC[C@@H](OCCO)[C@H](OC)C2)CC(=O)[C@H](C)/C=C(\C)[C@@H](O)[C@@H](OC)C(=O)[C@H](C)C[C@H](C)/C=C/C=C/C=C/1C [Everolimus, everolimus] | 1.63 µg/mL (≈ 1.7 µM) | −5.8 | 9.96 | −2.7 |  | 

Row | SMILES | RMW [2, 4] | RMW [2, 5] | RMW [2, 6] | RMW [2, 7] | RMW [2, 8] | RMW [2, 9] | RMW [2, 10] | RMW [2, 11] | RMW [2, 12] | RMW values, range [2] | RMW values, range on RP2F254 ([2]; RP2F254 plates, range over the three mobile phases) | Solubility in Water [1] | logS [1] | pKa (Strongest Acidic) [1] | pKa (Strongest Basic) [1] | logPexp (Experimental Value) [3] | logPexp (Experimental Value) ([3]; listed as ceftazidime)
5 | CC(=O)NC[C@H]1CN(c2ccc(N3CCSCC3)c(F)c2)C(=O)O1 [Sutezolid, sutezolid] | 1.4312 | 1.4334 | 1.1590 | 2.2114 | 1.8680 | 1.5937 | 2.0329 | 1.9661 | 1.4784 |  |  | 237 µg/mL (≈ 671 µM) | −3.2 | 14.85 | −0.14 |  | 
